# Reference: patent publication US20190307893A1, “NANOVESICLES WITH PORPHYRIN-LIPID CONJUGATE CORE” (UNIVERSITY HEALTH NETWORK, priority 2016, published 2019)
# “Also recorded” adds a separate entry of the source.
# Legend:
# Assay type in all cases: physicochemical
# [1] = Fluorescence properties and quenching of chlorin derivatives in lipid nanovesicles; conditions: embedded within lipid nanovesicles; for Full width at half max: fluorescence
# Experimental: Fluorescence measurements were carried out Fluoromax ut on a Fluoromax-4 spectrofluorometer (Horiba Jobin Yvon, NJ) Fluorescence spectra of intact and detergent disrupted state was measured by exciting samples at 556 nm with a 5 nm slit width and collecting fluorescence from 600 nm to 800 with a 5 nm slit width. Quenching efficiency was calculated by the following equation: […]
# (§1) Where F0 and Fdetergent are the integration of fluorescence intensity from 600 nm to 800 nm for intact and detergent-disrupted sample respectively. Circular dichroism spectra was measured in PBS and 0.1% Triton-X100 using a J-815 Circular Dichroism Spectrometer (JASCO Inc.).
# [2] = UV/visible absorption and circular dichroism of chlorin-loaded lipid nanovesicles
# Experimental: (§2) Z-average size and polydispersity of the samples in PBS were measured using a Malvern ZS90 (Instruments, UK). Absorption spectra of each sample was determined by UV spectroscopy (CARY 50 UV/Vis S3 Spectrophotometer, Varian Inc.). Absorption spectra of intact samples was measured in PBS, and that of detergent disrupted samples was measured after adding Triton-X100 so that the final detergent concentration was 0.1% v/v.
# as §1
# [3] = Dynamic light scattering size measurement of chlorin derivatives embedded in liposomes; conditions: 20% chlorin derivatives embedded within liposomes
# Experimental: Lipid film was prepared in the 12 mm×35 mm clear glass threaded vials (Fisher Scientific) by combining 20% of chlorin derivatives (either Zn-MeO-chlorin acid 7, Zn-vinyl-chlorin lipid, MeO-chlorin lipid, or Zn-MeO-chlorin lipid) with 75% DPPC and 5% DPPE-mPEG2000 dissolved in MeOH or chloroform. The lipid solutions were dried under a stream of nitrogen gas for 30 min and further dried under vacuum desiccation for at least 3 h before hydration. One milliliter phosphate buffered saline (PBS) was added to the lipid films and 10 freeze and thaw cycles was performed by sequentially freezing the sample in liquid nitrogen, followed by rapid thawing in a 70° C. water bath. Dispersed particles were then subjected to extrusion by passing samples 10 times through a high pressure extruder loaded with 100 nm polycarbonate filter membranes at 70° C.
# as §2
# [4] = Storage stability of nanoparticles at room temperature after freeze-thaw; conditions: 10 days, PBS, after freeze-thaw rehydration
# Experimental: The color of Zn-MeO-chlorin acid (7) and Zn-MeO-chlorinchlorin lipid (11) nanoparticles was monitored after 10 freeze and thaw cycles. Concentration of chlorin dyes in each sample was adjusted to 60 μM. Samples were stored in the dark at room temperature for 10 days.
# [5] = UV/visible absorption of chlorin oleylamine loaded lipoprotein nanoparticles; conditions: for Qy-band wavelength shift: intact lipoprotein nanoparticle in PBS vs monomeric form in methanol, 10:1 DMPC:dye
# Experimental: Lipid film was prepared in 12 mm×75 mm clear glass threaded vials (Fisher Scientific) by combining 0.1 μmol (4, 10, 10, 13 or 17) and 1.0 μmol DMPC in chloroform. The lipid solutions were dried under a slow stream of nitrogen gas for 30 min and further dried under a higher stream for at least 1 h before hydration. One mL of phosphate buffered saline (PBS) was added to the dried lipid films and sonicated in a 47° C. water bath for 10 minutes immediately followed by Bioruptor at low frequency (30 kHz) for 30 cycles (30 s on/30 s off) at 40° C. R4F peptide (0.1 μmol; 1 mg/mL in PBS) was added into the rehydrated solution and the mixture was mixed gently at 4° C. overnight. The solution was centrifuged at 13 500 rpm for 20 min subsequently and filtered with a 0.1 μm membrane. Unbound peptide was removed and nanoparticle sample was concentrated using a 10 kDa membrane centrifugal filter (EMD Millipore) by two rounds of centrifugation at 4000 g for 7 min at 4° C.
# The UV-Vis absorption spectra of lipoprotein nanoparticles with Zn-containing oleylamine compounds 4, 10 and 17 are shown in FIG. 14. The intact structures are labeled in green (solid line) and methanol-disrupted structures are labeled in black (dashed line).
# [6] = 20% loading, intact nanovesicles
Molecule,FL λmax [1] [nm],Stokes Shift [1],Full width at half max [1] [nm],ordered aggregation in the lipid bilayer ([2]; nanovesicles),Z-average [3] [nm·days],stability on storage (visible dispersion) [4],PDI (polydispersity index) [3],Qy-band wavelength shift [5] [nm],other results
Zinc 13^2-demethoxycarbonylpheophorbide-a lipid [Zn-vinyl-chlorin lipid],682,9 nm,21,did not,101 ± 2.3,–,–,–,–
"CCCCCCCCCCCCCCCC(=O)OCC(COP(=O)([O-])OCC[N+](C)(C)C)OC(=O)CC[C@@H]1c2nc(cc3[nH]c(cc4nc(cc5[nH]c6c2CC(=O)c6c5C)C(CC)=C4C)c(COC)c3C)[C@H]1C (some centres unmarked) [MeO-chlorin lipid, 3-Devinyl-3′-methoxymethyl-13^2-demethoxycarbonylpheophorbide-a lipid]",676,10 nm,40,did not,105 ± 1.6,–,–,–,–
Zinc 3-Devinyl-3′-methoxymethyl-13^2-demethoxycarbonylpheophorbide-a lipid [Zn-MeO-chlorin lipid],725,no appreciable Stokes' shift,15,showed ordered aggregation,96.0 ± 3.9,remained visibly dispersed,0.10 ± 0.04,–,"Stokes Shift ([1]; listed as Zn—MeO-chlorin lipid): 0 nm; CD spectra [2, 6]: bisignate spectra around the Qy band region; far red-shifted absorption peak [2, 6]: 725 nm; secondary peak red-shift from the monomer absorption [2, 6]: 3 nm; bathochromic shift in the lowest energy absorption band (Qy) ([2]; lipid nanovesicles vs monomeric state in methanol or 0.1% Triton X-100): 72 nm; effect of dye loading beyond 20% on spectra ([2]; loading titrated 1-30 mol % of total lipid): neither UV/Vis spectra nor CD spectra significantly changed"
"C=Cc1c(C)c2[n]3c1=CC1=NC(=Cc4c(C)c5c([n]4[Zn]3)C(=C3N=C(C=2)[C@@H](C)[C@@H]3CCC(=O)NCCCCCCCC/C=C\CCCCCCCC)CC5=O)C(CC)=C1C [Zn-vinyl-chlorin oleylamine, Zinc 13^2-demethoxycarbonylpheophorbide-a oleylamine]",–,–,–,–,–,–,–,8,–
"CCC1=C(C)C2=NC1=Cc1c(C)c3c4[n]1[Zn][n]1c(c(C)c(COC)c1=C2)=CC1=NC(=C4CC3=O)[C@@H](CCC(=O)O)[C@@H]1C [Zn-MeO-chlorin acid, Zinc 3-devinyl-3′-methoxymethy-13^2-demethoxycarbonylpheophorbide-a]",664,1 nm,24,–,113.9 ± 9.6,flocculated after 10 days; also recorded: Precipitate was observed,> 0.3,–,"shift in optical absorption / CD ([2]; nanovesicles, 1% loading for Zn-MeO-chlorin acid, 20% for chlorin lipids): did not demonstrate appreciable shift in optical absorption nor CD; PDI (polydispersity index) ([3]; listed as Zu—MeO-chlorin acid): 0.3 ± 0.2"
"CCCCCCCC/C=C\CCCCCCCCNC(=O)CC[C@@H]1C2=C3CC(=O)c4c(C)c5[n](c43)[Zn][n]3c(c(C)c(CO)c3=CC3=NC(=C5)C(CC)=C3C)=CC(=N2)[C@H]1C [Zn—OH-chlorin oleylamine, Zinc 3-Devinyl-3^1-hydroxyl-13^2-demethoxycarbonylpheophorbide-a oleylamine]",–,–,–,–,–,–,–,61,"absorption when nanostructures disrupted ([5]; lipoprotein nanoparticles, disrupted): 654 nm; absorption of loaded (intact) nanoparticles ([5]; lipoprotein nanoparticles, intact): 715 nm"
